# Ends that are not written are not given here.
# System: bleomycin-induced skin sclerosis
# Details: mouse, in vivo
# Experimental: Two emulsions or creams were prepared, an emulsion containing peptide P144 and a control emulsion with the vehicle for administration but without P144.
# The control emulsion with the vehicle for administration was prepared by a procedure that starts with mixing of the components that are shown below in Table 2:
# Next, this mixture was heated at 70° C. and was emulsified with 44.4 g of distilled water (also at 70° C.).
# The emulsion containing the P144 was prepared as previously, except that the 44.4 g of water was replaced with a mixture of 44.28 g of water plus 0.010 g of P144 previously dissolved in 100 μl of dimethylsulphoxide.
# The test was carried out using 6-week-old female C3H mice, supplied by Harlan SL (Spain). Development of skin sclerosis in the mice was induced by the administration of bleomycin (Sigma, Spain) dissolved in PBS at a concentration of 100 μg/ml and sterilized by filtration. The mice were injected with the bleomycin subcutaneously in the skin of the back, previously shaved, at daily doses of 100 μl of the solution in PBS injected with size 27 needles. […]
# The thickness of the dermis was measured on the digitized images of the sections stained with haematoxylin and eosin, and then the percentage variation in thickness of the dermis was calculated relative to the mean of the values obtained for the mice treated with PBS, adjusted to 100%. […]
sequence,measurement,value
TSLDASIIWAMMQN [Peptide P144],morphological changes in the epidermis,No changes were observed
same,signs of systemic toxicity,without signs of systemic toxicity

# From patent US7582609B2, “Method for the treatment of skin fibrosis and suitable compositions for such treatment” (Digna Biotech, S.L., priority 2006, dated 2009)
